Measured values: PubChem BioAssay (NCI)
Several values for one entry are separate records, joined by “and”; a condition that tells them apart may be missing. Equal values may be shown once.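 Assay format: 96-well plates, 48-hour exposure. At the GI50, growth is halved. TGI is the concentration that stops growth completely.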

What was measured:
Assay in all cases: growth of human tumour cells (NCI), 48 h
RPMI-8226 leukemia = tested on: RPMI-8226 leukemia
HCT-15 colon = tested on: HCT-15 colon
SN12C renal = tested on: SN12C renal
SK-MEL-2 melanoma = tested on: SK-MEL-2 melanoma
OVCAR-4 ovarian = tested on: OVCAR-4 ovarian
OVCAR-8 ovarian = tested on: OVCAR-8 ovarian
SF-295 CNS = tested on: SF-295 CNS
EKVX NSCLC = tested on: EKVX NSCLC
NCI-H23 lung = tested on: NCI-H23 lung
MOLT-4 leukemia = tested on: MOLT-4 leukemia

SMILES	GI50 (RPMI-8226 leukemia)	TGI (RPMI-8226 leukemia)	GI50 (HCT-15 colon)	TGI (HCT-15 colon)	GI50 (SN12C renal)	TGI (SN12C renal)	GI50 (SK-MEL-2 melanoma)	TGI (SK-MEL-2 melanoma)	GI50 (OVCAR-4 ovarian)	TGI (OVCAR-4 ovarian)	GI50 (OVCAR-8 ovarian)	TGI (OVCAR-8 ovarian)	GI50 (SF-295 CNS)	TGI (SF-295 CNS)	GI50 (EKVX NSCLC)	TGI (EKVX NSCLC)	GI50 (NCI-H23 lung)	TGI (NCI-H23 lung)	GI50 (MOLT-4 leukemia)	TGI (MOLT-4 leukemia)
c1cc[c]([Ge]([O]c2cccc3cccnc23)([c]2ccccc2)[c]2ccccc2)cc1	2.29 µM	6.77 µM	3.56 µM	12.4 µM	4.52 µM	16.5 µM	2.59 µM	11.7 µM	3.11 µM	13.1 µM	3.25 µM	10.6 µM	11.2 µM	23.8 µM	3.42 µM	12.9 µM	2.96 µM	8.16 µM		
Cc1cc(-c2nc3sc(C)cn3c2/C=N/N=C(N)N)c(C)s1			19.8 µM	40 µM	14 µM	28.3 µM	40.8 µM	> 100 µM	10.7 µM	27.4 µM	17.6 µM	43.6 µM	1.78 µM	3.85 µM	14.8 µM	30.6 µM	14.6 µM	28.2 µM	> 100 µM	> 100 µM
COc1ccc(/C=C/c2onc3c(=O)n(C)nc(-c4ccccc4)c23)cc1		> 100 µM		> 100 µM		> 100 µM						> 100 µM				> 100 µM		> 100 µM		> 100 µM
CCN1/C(=C/C(C)=C/c2sc3ccc4ccccc4c3[n+]2CC)Sc2ccc3ccccc3c21	< 0.0134 µM	0.131 µM	0.219 µM	0.744 µM	0.189 µM	1.05 µM	0.193 µM	0.586 µM	0.138 µM	1.26 µM	0.067 µM	0.83 µM	0.121 µM	0.674 µM			0.108 µM	1.19 µM	0.164 µM	2.15 µM
Cn1cnc([N+](=O)[O-])c1S(=O)(=O)Oc1ccc(Cl)cc1	3.58 µM	17.7 µM	1.64 µM	3.47 µM	13.2 µM	30.8 µM	18.7 µM	61.1 µM			18.8 µM	97.1 µM	25.2 µM	> 100 µM	19.1 µM	49.6 µM	8.88 µM	25.6 µM	2.25 µM	5.26 µM
O=C(COc1ccccc1)NNc1ccccc1	68.3 µM and 274 µM	> 300 µM	8.88 µM and 12.3 µM	> 300 µM	> 300 µM	> 300 µM	74.5 µM	> 300 µM	> 300 µM	> 300 µM	> 56.1 µM and 58.3 µM	> 300 µM	18.3 µM and 11.2 µM	> 300 µM			> 300 µM	> 300 µM	25.5 µM and 16.3 µM	> 300 µM
CC1OC(n2cc(F)c(=O)[nH]c2=O)CCC1=O (stereo not drawn)		> 100 µM		> 100 µM		> 100 µM		> 100 µM		> 100 µM		> 100 µM		> 100 µM						> 100 µM
COc1cccc(S(=O)(=O)NC2=NCCN2C(=S)SN2CCn3c2nsc3=S)c1	26.1 µM	97.6 µM	21.6 µM	43.7 µM	36.1 µM	> 100 µM	68.2 µM	> 100 µM	34.2 µM	> 100 µM	44.4 µM	> 100 µM	> 100 µM	> 100 µM	95.7 µM	> 100 µM			32.5 µM	> 100 µM
